Experiments:
Type in all cases: in vivo
STZ mice [1] = assay: Blood glucose in mouse pancreatic islet β-cell injury model (STZ ICR mice), limonoid/rosiglitazone; details: single agent 0.02 g/kg per day gavage, two weeks, 1 h after last administration, mean ± SD
Method: It should be noted that the conditions for raising the mice were as follows: the temperature was 23±1° C., the humidity was 55±10%, the lights were turned on between 7 am and 7 pm (the lights were turned off at other time), and the mice were allowed to freely take in water and feed. The experimental feed was mouse growth-stable feed (GB M2118), and the daily feeding and management of the animals were under the responsibility of the animal security department, which provided the animals with sufficient diet and fresh drinking water daily.
SPSS 16.0 software was used for statistical analysis. The data were expressed as mean and standard deviation.

db/db mice [2] = assay: Serum insulin (Elisa) in mouse type II diabetes model (db/db mice), limonoid/rosiglitazone; details: single agent 0.2 g/kg per day gavage, two weeks, mean ± SD
Source text: (§1) Effects of limonoid compound, rosiglitazone or combination thereof on blood glucose and insulin in mouse type II diabetes model
(§2) In the present embodiment, the limonoid compound was selected from nomilin, deacetylnomilin, nomilin acid, deacetylnomilin acid glycoside, and rosiglitazone single administration group, nomilin single administration group, deacetylnomilin single administration group, nomilin acid single administered group, deacetylnomilin acid glycoside single administration group, and respective combination thereof with rosiglitazone administration groups were set.
(§3) Conditions for experimental feeding: as type II diabetes model mice, 6-week-old SPF-grade db/db mice were purchased from the Nanjing Model Biology Institute, and subjected to experimental feeding after 7 days of preliminary feeding. […]
(§4) Two weeks later, the blood glucose values were measured by tail trimming method (Johnson's blood glucose meter) 1 h after the last administration, and serum insulin levels were measured with blood collected from orbital cavity by enzyme-linked immunosorbent assay (Elisa), and the average of each group was obtained. […] The data were expressed as mean and standard deviation.

db/db mice [3] = assay: Blood glucose in mouse type II diabetes model (db/db mice), limonoid/rosiglitazone; details: single agent 0.2 g/kg per day gavage, two weeks, 1 h after last administration, mean ± SD
Source text: as §1, §2, §3, §4

db/db mice [4] = assay: Serum leptin (Elisa) in mouse type II diabetes model (db/db mice), limonoid/pioglitazone; details: single agent 0.04 g/kg per day gavage, two weeks, mean ± SD
Source text: (§5) Effects of limonoid compound, pioglitazone or combination thereof on blood glucose and leptin in mouse type II diabetes model In the present example, db/db mice (line name BKS.Cg-Dock7m^+/+Lepr^db/Nju) were used to perform hypoglycemic efficacy evaluation test of animals (blood glucose level and leptin). The limonoid compound was selected from obacunone, isoobacunoic acid and obacunone glycoside, and pioglitazone single administration group, obacunone single administration group, isoobacunoic acid single administration group, obacunone glycoside single administered group, and respective combination thereof with pioglitazone administration groups were set. Conditions for experimental feeding: as type II diabetes model mice, 6-week-old SPF-grade db/db mice were purchased from the Nanjing Model Biology Institute, and subjected to experimental feeding after 7 days of preliminary feeding. […] The experimental feed was mouse growth-stable feed (GB […]), and the daily feeding and management of the animals were under the responsibility of the animal security department, which provided the animals with sufficient diet and fresh drinking water daily. […] The data were expressed as mean and standard deviation. The data before and after were analyzed by t-test, and P <0.05 was considered statistically significant.

STZ mice [5] = assay: Blood glucose in mouse pancreatic islet β-cell injury model (STZ ICR mice), limonoid/pioglitazone; details: single agent 0.1 g/kg per day gavage, two weeks, 1 h after last administration, mean ± SD
Source text: Effects of limonoid compound, pioglitazone or combination thereof on blood glucose in mouse pancreatic islet β-cell injury model In this example, a mouse pancreatic islet β-cell injury model was established by modeling ICR mice with streptozotocin (STZ) (Li Nan et al., Protective effect of pine pollen on kidney damage in diabetic nephropathy mice, Science and Technology Review, 2014, 32 (4⁄5): 95-99), and used to complete the evaluation of hypoglycemic effect in animals (this model could simulate pancreatic islet β-cell damage state of type I and type II diabetics). The limonoid compound was selected from the group consisting of […], and […] glycoside, and pioglitazone single administration group, […] single administration group, […] single administration group, […] glycoside singe administration group, and respective combination thereof with pioglitazone administration groups were set. Conditions of experimental feeding: […] The experimental feed was mouse growth-stable feed (GB […]), and the daily feeding and management of the animals were under the responsibility of the animal security department, which provided the animals with sufficient diet and fresh drinking water daily. […] The data were expressed as mean and standard deviation. The data before and after were analyzed by t-test, and P <0.05 was considered statistically significant.

STZ mice [6] = assay: Blood glucose in mouse type II diabetes model with pancreatic islet damage and obesity (STZ + high-fat diet ICR mice), limonoid/pioglitazone; details: single agent 0.5 g/kg per day gavage, two weeks, 1 h after last administration, mean ± SD
Source text: Effects of limonoid compound, pioglitazone or combination thereof on blood glucose in mouse type II diabetes model with pancreatic islet damage and obesity In this example, a mouse model of type II diabetes with pancreatic islet damage and obesity was established by multiple modeling ICR mice with a small dose of streptozotocin (STZ), following with continuous high-fat diets (referring to literature: […] Conditions of experimental feeding: […] The experimental feed was mouse growth-stable feed (GB […]), and the daily feeding and management of the animals were under the responsibility of the animal security department, which provided the animals with sufficient diet and fresh drinking water daily. Experimental grouping: 15 male mice were randomly selected as the normal control group, and the remaining mice were subjected to a high-fat diet (high-fat diet formula: cholesterol 1%, egg yolk powder 10%, lard oil 10%, and basic feed 79%, for establishing an obesity mouse model) for consecutive 4 weeks and intraperitoneal injection of STZ at a dose of 35mg/kg for three consecutive days. […] SPSS 16.0 software was used for statistical analysis. The data were expressed as mean and standard deviation. The data before and after were analyzed by t-test, and P <0.05 was considered statistically significant.

db/db mice [7] = assay: Blood glucose in mouse type II diabetes model (db/db mice), limonoid/pioglitazone; details: single agent 0.04 g/kg per day gavage, two weeks, 1 h after last administration, mean ± SD
Source text: as §5

Structure (SMILES) | Blood glucose value (STZ mice [1]) | Insulin (db/db mice [2]) | Blood glucose value (db/db mice [3]) | Leptin (db/db mice [4]) | Blood glucose value (STZ mice [5]) | Blood glucose value (STZ mice [6]) | Blood glucose value (db/db mice [7])
CN(CCOc1ccc(CC2SC(=O)NC2=O)cc1)c1ccccn1 (stereo not shown) [Rosiglitazone, rosiglitazone] | 17.9 ± 3.5 mmol/L | 7.54 ± 1.21 pg/mL | 10.0 ± 2.5 mmol/L |  |  |  | 
CCc1ccc(CCOc2ccc(CC3SC(=O)NC3=O)cc2)nc1 (stereo not shown) [Pioglitazone, pioglitazone] |  |  |  | 24.55 ± 5.14 pg/mL | 12.8 ± 3.1 mmol/L | 9.9 ± 2.1 mmol/L | 11.5 ± 3.0 mmol/L
